What was measured:
[1] = test system: thiobarbituric acid-reactive substances (TBARS) in rat brain homogenate; test: Antioxidative activity, method 1: TBARS level in oxidised rat brain homogenate; type: biochemical; conditions: ethanol solutions, 100 mM of each substance, 37° C., 27 hours
Procedure: In method 1 of measuring antioxidative activity, a level of thiobarbituric acid-reactive substances (TBARS) generated by an oxidative reaction was determined (Buege J. A. and Aust S. D., Methods Enzymol., 1978, 52: 302).
In this method, rat brain was homogenized in about 2.5 times by weight of saline to prepare a brain homogenate. The brain homogenate (80 μl), an ethanol solution (30 μl) containing antioxidative substance, Eagle's MEM medium (120 μl) , CuSO4 (240 μM), and FeCl3 (240 μM) were mixed and the mixture was maintained at 37° C. for 27 hours. Then, a 20% trichloroacetic acid (TCA) solution (0.9 ml) and a 0.67% thiobarbituric acid (TBA) solution (0.9 ml) were added and the resulting mixture was heated at 100° C. for 30 minutes. After cooling by water, the mixture was centrifuged to separate a supernatant. The absorbance of the supernatant was measured at 532 nm. […] The antioxidative activity (%) of an antioxidative substance was determined by the ratio of a decrease of the TBARS content in the presence of an antioxidative substance to the TBARS content in the absence of an antioxidative substance.
According to the above-mentioned methods, the antioxidative activity (A) in combination of reduced coenzyme Q10 and a carotenoid, the antioxidative activity (B) of reduced coenzyme Q10 used alone, and the antioxidative activity (C) of the carotenoid used alone are measured. […]

[2] = Antioxidative activity, method 2: DPPH spectrometry; conditions: ethanol solutions, 25 μM of each substance, after 20 minutes, calibrated with catechin
Procedure: Since the TBARS is red, method 1 cannot accurately determine absorbance of some carotenoids. Therefore, spectrometry using 1,1-dipehnyl-2-picrylhydrazyl (DPPH) was also conducted (K. Shinohara and T. Suzuki, Shokuhin-Kinou-Kenkyuho (Methods for Functional Food Analysis), 2000, 218).
In method 2, 12 ml of a 200 mM MES buffer (pH 6.0) was added to 12 ml of a 400 μM DPPH ethanol solution. Then, 12 ml ethanol was added to prepare a mixture. An ethanol solution (0.6 ml) containing an antioxidative substance was added to the mixture (0.9 ml). After 20 minutes, the absorbance of the mixture was measured at 510 nm. In this measuring system, the absorbance decreases as the antioxidative activity of the antioxidative substance increases. The antioxidative activity of the antioxidative substance was quantitatively determined using a calibration curve prepared with catechin. Namely, the minimum absorbance when DPPH radicals were completely consumed with an excess amount of catechin corresponded to 100% antioxidative activity. The maximum absorbance when DPPH radicals were not consumed at all corresponded to 0% antioxidative activity. The calibration curve was drawn from these 2 points and the antioxidative activity (%) was determined from the absorbance of the antioxidative substance.
According to the above-mentioned methods, the antioxidative activity (A) in combination of reduced coenzyme Q10 and a carotenoid, the antioxidative activity (B) of reduced coenzyme Q10 used alone, and the antioxidative activity (C) of the carotenoid used alone are measured. The antioxidative activity in combination of reduced coenzyme Q10 and the carotenoid is compared with the sum (additive effect) of the antioxidative activity of reduced coenzyme Q10 alone and the antioxidative activity of the carotenoid alone in order to investigate the synergistic effect.
In the present invention, both the following two formulae were used to correctly determine if the use in combination of reduced coenzyme Q10 and a carotenoid show synergistic effect. […]

SMILES | Antioxidative Activity (%) (Inhibition Ratio of Oxidation) [1] | Antioxidative Activity (%) (Inhibition Ratio of Oxidation) [2]
CC1=C(/C=C/C(C)=C/C=C/C(C)=C/C=C/C=C(C)/C=C/C=C(C)/C=C/C2=C(C)C(=O)[C@@H](O)CC2(C)C)C(C)(C)C[C@H](O)C1=O [Astaxanthin, astaxanthin] | 21.6 | –
CC(C)=CCC/C(C)=C/C=C/C(C)=C/C=C/C(C)=C/C=C/C=C(C)/C=C/C=C(C)/C=C/C=C(\C)CCC=C(C)C [Lycopene, lycopene] | – | 0.9
COc1c(O)c(C)c(C/C=C(\C)CC/C=C(\C)CC/C=C(\C)CC/C=C(\C)CC/C=C(\C)CC/C=C(\C)CC/C=C(\C)CC/C=C(\C)CC/C=C(\C)CCC=C(C)C)c(O)c1OC [Reduced coenzyme Q10, reduced coenzyme Q10] | 10.9 | 10.3
CC1=C(/C=C/C(C)=C/C=C/C(C)=C/C=C/C=C(C)/C=C/C=C(C)/C=C/C2=C(C)CCCC2(C)C)C(C)(C)CCC1 [β-Carotene, β-carotene] | – | 8.8

From US20050226858A1, “Compositions containing reduced coenzyme Q10 and carotenoid” (KANEKA CORPORATION, priority 2004, published 2005)
